Consider 22 compounds from ChEMBL document CHEMBL2440014, “Design, synthesis and biological evaluation of di-substituted cinnamic hydroxamic acids bearing urea/thiourea unit as potent histone deacetylase inhibitors” (Bioorg Med Chem Lett, 2013).

Broadly, the inhibition is the percentage by which the read-out fell short of the control. A low value points to little suppression. Usually GI50 stands for the concentration at which growth is held to half of that of the control. Higher therefore signals less potent growth inhibition. The term IC50 denotes the midpoint of a concentration-inhibition curve. Low readings indicate greater potency, high ones weaker potency.

Structures are written as SMILES.

In experiment [1] the target is Histone deacetylase (Homo sapiens) (UniProt Q13547+O15379+Q9UBN7+Q92769+Q9UQL6+Q8WUI4+Q9BY41+Q96DB2+P56524+Q9UKV0+Q969S8). The note with it: HeLa, at 1 µM.
Description: Inhibition of HDAC in human HeLa cell nuclear extracts using Fluor de Lys as substrate at 1 uM by fluorescence assay
The test system of another experiment is OVCAR-5. Briefly: Antiproliferative activity against human OVCAR5 cells after 48 hrs by sulforhodamine B assay. The note with it: OVCAR-5, 48 h. It counts as functional. For orientation: In SRB staining, fixed cells bind dye roughly in proportion to their protein.
The test system of a further experiment is NCI-H460. Briefly: Antiproliferative activity against human NCI-H460 cells after 48 hrs by sulforhodamine B assay. Particulars: NCI-H460, 48 h. It counts as functional.
Another experiment concerns MDA-MB-435. Briefly: Antiproliferative activity against human MDA-MB-435 cells after 48 hrs by sulforhodamine B assay. It counts as functional. The note with it: MDA-MB-435, 48 h.
For a further experiment, the system named is MCF7. Briefly: Antiproliferative activity against human MCF7 cells after 48 hrs by sulforhodamine B assay. It counts as functional. The note with it: MCF7, 48 h.
For a further experiment, the system named is HCT-116. Kind of experiment: Antiproliferative activity against human HCT116 cells after 48 hrs by sulforhodamine B assay. It counts as functional. Particulars: HCT-116, 48 h.
The target in a further experiment is Histone deacetylase. Briefly: Inhibition of HDAC in human HeLa cell nuclear extracts using Fluor de Lys as substrate by fluorescence assay. It counts as protein assay.

As to `CCCCCCCNC(=S)Nc1cc(/C=C/C(=O)NO)ccc1OCCN(CC)CC`, the inhibition in experiment [1] came to 69.8%.

As to `CCCCc1nc2cc(/C=C/C(=O)NO)ccc2n1CCN(CC)CC` [PRACINOSTAT], the concentration for 50% growth inhibition (GI50) with OVCAR-5 worked out at 610 nM; in the experiment with NCI-H460 it was 220 nM; in the experiment with MDA-MB-435, 480 nM; in the experiment on MCF7, 170 nM; in the experiment with HCT-116, 240 nM.

The compound `CCCCCNC(=S)Nc1cc(/C=C/C(=O)NO)ccc1SCCN(CC)CC` displayed an inhibition in experiment [1] of 73.8%.

In experiment [1], `CCCCNC(=O)Nc1cc(/C=C/C(=O)NO)ccc1OCCN(CC)CC` gave an inhibition of 80.7%.

Consider `CCCCCCCNC(=O)Nc1cc(/C=C/C(=O)NO)ccc1SCCN(CC)CC`, for which the inhibition in experiment [1] came to 48.7%.

For the compound `CCCCNC(=S)Nc1cc(/C=C/C(=O)NO)ccc1OCCN(CC)CC`, the GI50 worked out at 1120 nM in the experiment with OVCAR-5; 480 nM with NCI-H460; 510 nM with MDA-MB-435; 220 nM with MCF7; 350 nM in the experiment with HCT-116. Moreover, on Histone deacetylase, the IC50 is 130 nM. This compound also returned an inhibition in experiment [1] of 88%.

`CCCCCCCNC(=O)Nc1cc(/C=C/C(=O)NO)ccc1OCCN(CC)CC` registered an IC50 at Histone deacetylase of 410 nM. For the same compound, in experiment [1], the inhibition was found to be 83.6%.

Take `CCCNC(=O)Nc1cc(/C=C/C(=O)NO)ccc1OCCN(CC)CC`: the half-maximal inhibitory concentration (IC50) against Histone deacetylase is 234 nM. Besides, the inhibition in experiment [1] amounted to 80%.

Take `CCCCCNC(=S)Nc1cc(/C=C/C(=O)NO)ccc1OCCN(CC)CC`: the GI50 in the experiment on OVCAR-5 stood at 1560 nM; in the experiment with NCI-H460 it was 1080 nM; in the experiment on MDA-MB-435 it was 1180 nM; in the experiment with MCF7, 380 nM; with HCT-116, 720 nM. The compound further returned an IC50 at Histone deacetylase of 216 nM. This compound gave an inhibition in experiment [1] of 90.5%.

With `CCCCCCCNC(=S)Nc1cc(/C=C/C(=O)NO)ccc1SCCN(CC)CC`, the inhibition in experiment [1] came to 62.4%.

With `O=C(CCCCCCC(=O)Nc1ccccc1)NO` [VORINOSTAT], the GI50 in the experiment on MDA-MB-435 is 880 nM; in the experiment on MCF7, 450 nM; in the experiment on HCT-116, 940 nM.

Regarding `CCCNC(=S)Nc1cc(/C=C/C(=O)NO)ccc1SCCN(CC)CC`, the inhibition in experiment [1] is 76.2%.

In turn, `CCCNC(=O)Nc1cc(/C=C/C(=O)NO)ccc1SCCN(CC)CC` showed an IC50 on Histone deacetylase of 198 nM. This compound also had an inhibition in experiment [1] of 82.7%.

Consider `CCCCCNC(=O)Nc1cc(/C=C/C(=O)NO)ccc1SCCN(CC)CC`, for which the GI50 in the experiment on OVCAR-5 was 1800 nM; in the experiment on NCI-H460, 940 nM; with MDA-MB-435, 990 nM; with MCF7, 400 nM; in the experiment with HCT-116 it was 560 nM. On Histone deacetylase, this compound returned an IC50 of 206 nM. Moreover, the inhibition in experiment [1] is 84.2%.

Regarding `CCCCCCNC(=O)Nc1cc(/C=C/C(=O)NO)ccc1SCCN(CC)CC`, the inhibition in experiment [1] is 79.6%.

In the case of `CCCCNC(=O)Nc1cc(/C=C/C(=O)NO)ccc1SCCN(CC)CC`, the GI50 in the experiment with OVCAR-5 is 1750 nM; in the experiment with NCI-H460, 1550 nM; with MDA-MB-435, 1500 nM; in the experiment with MCF7 it was 430 nM; with HCT-116 it was 590 nM. At Histone deacetylase, this compound returned an IC50 of 172 nM. For the same compound, in experiment [1], the inhibition was 84.5%.

At Histone deacetylase, `CCCCCCNC(=S)Nc1cc(/C=C/C(=O)NO)ccc1OCCN(CC)CC` had an IC50 of 187 nM. In experiment [1], this compound registered an inhibition of 87.4%.

`CCCNC(=S)Nc1cc(/C=C/C(=O)NO)ccc1OCCN(CC)CC` yielded an IC50 against Histone deacetylase of 210 nM. In addition, the inhibition in experiment [1] turned out to be 82.9%.

Turning to `CCCCCCNC(=S)Nc1cc(/C=C/C(=O)NO)ccc1SCCN(CC)CC`, the inhibition in experiment [1] turned out to be 72.2%.

In experiment [1], `CCCCNC(=S)Nc1cc(/C=C/C(=O)NO)ccc1SCCN(CC)CC` returned an inhibition of 73.9%.

`CCCCCCNC(=O)Nc1cc(/C=C/C(=O)NO)ccc1OCCN(CC)CC` came in with a half-maximal inhibitory concentration (IC50) against Histone deacetylase of 304 nM. The inhibition in experiment [1] amounted to 87.5%.

Consider `CCCCCNC(=O)Nc1cc(/C=C/C(=O)NO)ccc1OCCN(CC)CC`, for which the concentration for 50% growth inhibition (GI50) in the experiment with OVCAR-5 worked out at 1340 nM; in the experiment on NCI-H460 it was 870 nM; in the experiment on MDA-MB-435, 830 nM; with MCF7, 290 nM; in the experiment with HCT-116, 470 nM. Further, the half-maximal inhibitory concentration (IC50) at Histone deacetylase is reported as 186 nM. The compound also yielded an inhibition in experiment [1] of 88.9%.
